Data from a melting point compilation (Tetko et al.; mined from patent text by program, amines drawn as free bases though some values may be those of a salt).

SMILES | melting point
Nc1ncnc2c1ncn2C1OC(C(O)C(=O)OCc2ccccc2)C(O)C1O (stereo not given) | 144 to 145 °C
FC(F)(F)c1ccc(CC(=Nc2ccccc2)NC(=S)NCc2cccnc2)cc1 | 165 to 166 °C
CCc1cccc(-c2cn(C)cc(-c3ccccc3)c2=O)c1 | 135 to 137 °C
CCOC(=O)c1cnc2c(c(C)nn2C)c1N(C)S(=O)(=O)c1ccc(Oc2ccncc2)cc1 | 117 to 119 °C
N#Cc1ccc(-c2ncccc2O)cc1 | 245 to 246 °C
CC(C)(C)NC(=O)c1ccc(Cl)nc1 | 108 to 110 °C
CC(=O)OC1CC2C3CCC4=CC(=O)CCC4(C)C3CCC2(C)C1N(C)C(=O)C(F)(F)F (stereo not given) | 173 to 174 °C
CCc1cc(C(C)=O)c(O)cc1OCCCCCN | 75 to 76 °C
Fc1ccccc1-c1n[nH]c(-c2ccccc2C(F)(F)F)n1 | 153 to 155 °C
N#Cc1cc(C(=O)Nc2ccc(Cl)cn2)nc(C(F)(F)F)c1 | 208 °C
CCS(=O)c1ccccc1S(=O)(=O)NC(=O)Nc1nc(OC)nc(OC)n1 (stereo not given) | 165 °C
CNC(=O)ON=C1N=C(C(C)C)C(C)(C)S1 | 89 to 91 °C
CCOC(=O)Cc1ccc(-c2cn3cccnc3n2)cc1 | 155 to 158 °C
CC(=O)NC[C@H]1CN(c2cc(F)c(N3CCN(C(=O)CO)CC3)c(F)c2)C(=O)O1 | 160 to 162 °C
CCOC(=O)c1c(C)nn(C)c1S(=O)(=O)N=c1nc2nc(C)cc(C)n2s1 | 167 to 168 °C
O=[N+]([O-])c1cnc(Cl)nc1 | 78 to 80 °C
O=S(=O)(Nc1ccc(Cl)nc1I)c1ccc2ncsc2c1 | 191 °C
O=S(c1nc2ccccc2s1)N1CCOCC1 (stereo not given) | 93 to 94 °C
NC(=S)NCCSCc1c[nH]cn1 | 135 to 137 °C
CC(=O)C(=O)CCCCCCOc1ccc(-c2ccccc2)cc1 | 110 to 111 °C
Cc1cc(-c2cnn3c(C(F)(F)F)cc(-c4ccc(Cl)cc4)nc23)ccn1 | 220 °C
CC#COc1ccc2c(=O)c(C)c(-c3ccccc3)oc2c1 | 179 to 180 °C

SMILES | melting point
CN(C(=O)c1cccs1)c1cccc2cc(-c3nccs3)[nH]c12 | 250 °C
Cc1nn2c(c1C(N)=O)NCCC2 | 234 to 236 °C
CS(=O)(=O)c1ccc(-c2ncccc2C(=O)c2ccccn2)cc1 | 143 to 147 °C
Clc1cc(Cl)n2c(-c3cccs3)ncc2n1 | 152 to 153 °C
CNC(=O)[C@@H]1C[C@@H](OC(C)(C)C)CN1S(=O)(=O)c1ccc(Cl)c(CBr)c1Cl | 73 °C
CN1C(c2ccc(Br)cc2)C2C(=O)N(Cc3ccc4c(c3)OCO4)C(=O)C2C1(C)C (stereo not given) | 109 to 111 °C
CCn1nccc1C(=O)Nc1cc(Oc2ccc3nc(NC(=O)C4CC4)cn3n2)ccc1F | 209 °C
Cc1ccsc1C(Cc1ccccc1N)N(C)C (stereo not given) | 75 to 77 °C
CCN(CC)CCN(c1ccc(C(=O)c2ccccc2)cc1)S(C)(=O)=O | 74 to 76 °C
Cc1nc(-c2cccc3c2C2(COc4cc5c(cc42)OCCO5)C(=O)N3C)cs1 (stereo not given) | 219 to 220 °C
COC(=O)c1ccc2c(c1)C(SCCO)c1ccccc1CC2 (stereo not given) | 107 to 109 °C
CN1CCN(C(=O)[C@H]2CC[C@H](c3[nH]nc4c3C(=O)c3c(NC(=O)NN5CCOCC5)cccc3-4)CC2)CC1 | 228 to 230 °C
COC(=O)c1cccc2nc(Cl)n(Cc3ccc(-c4ccccc4C#N)cc3)c12 | 154 to 157 °C
Nc1ccc(P(=O)(O)O)cc1 | 257 to 260 °C
O=[N+]([O-])c1cccc(-c2cc3ncnc(Nc4ccc5[nH]ccc5c4)c3s2)c1 | 175 to 183 °C
O=C(O)C(O)(c1ccccc1)c1ccc(Br)cc1 (racemic) | 125 to 126 °C
COc1cc2c(Nc3cccc(Cl)c3F)ncnc2cc1OC1CCN(C(=O)[C@@H](C)O)CC1 | 107 to 111 °C
CNCCc1cc(Br)cc(-c2sccc2C)c1N | 68 to 70 °C
C=C[C@@H](C[C@H](O)[C@H](CC1CCCCC1)NC(=O)[C@H](Cc1c[nH]cn1)NC(=O)[C@@H](CC(=O)NN)Cc1ccccc1)C(C)C | 109 °C
CCCCc1oc2ccccc2c1C(=O)NCc1ccc2c(Br)c(OCC(=O)OC)ccc2c1 | 140 to 141 °C
Cc1nc2c(OCc3c(Cl)ccc(S(=O)(=O)N4CCC[C@H]4C(=O)NCCCNC(=O)c4ccc(C=NN)cc4)c3Cl)cccn2c1Cl | 115 °C

Other lines, results leading:

melting point | SMILES
245 to 246 °C | O=C1Nc2ccc(-c3cccc([N+](=O)[O-])c3)cc2C2(CCCCC2)O1
153 to 155 °C | O=C(Nc1ccc(-n2nc(C(F)(F)F)cc2-c2cccs2)cc1)c1ccncc1F
140 °C | NC(=O)c1nccn1C1Cc2cc(-n3ccnc3)ccc2C1=O (stereo not given)
150 to 152 °C | COC(=O)c1sccc1OCC(O)CN1CCC(O)(c2ccccc2)CC1 (stereo not given)
251 to 252 °C | Cn1cc(C(N)=O)c(-c2ccc([N+](=O)[O-])o2)n1
82 to 84 °C | CC(=O)C(=Cc1ccccc1[N+](=O)[O-])C(=O)OCCCl
164 to 166 °C | COC(=O)N(C)c1cccc(-c2ccc3nnc(C)n3n2)c1
109 to 112 °C | CCOc1c(C)c(N2CCN(c3ccc(OC)cc3)CC2)c(C)c2c1OC(C)(C)C2=O
105 to 106 °C | CCSc1c(N)cnc2cc(Cl)ccc12
98.4 °C | CSc1cc(-c2ccc(Cl)cc2)nc(-c2cccc(Cl)c2)c1
258 to 260 °C | CCCCN(CCCC)c1ccc(C=Cc2ccc(C=CC3=C(C#N)C(=C(C#N)C#N)OC3(C)C)cc2)c(OC)c1
221 to 223 °C | COc1cc(Cc2cnc(N)nc2N)cc2c1NCCC2C (stereo not given)
202 to 204 °C | CCSc1nc(=O)n(CC(C)(C)C)c(=O)n1N
203 °C | O=C(O)Cc1c(C(=O)O)c2cc(Oc3ccc(C(F)(F)F)cn3)ccc2n1-c1ccc(OC(F)(F)F)cc1
230 to 231 °C | Cc1ccc(-c2ccc3c(c2)C=C(C(=O)O)CC3)cc1
338 to 340 °C | Cc1cc2nc3ccc(C(=O)O)cn3c(=O)c2s1
168 to 170 °C | COc1ccc(S(=O)(=O)Nc2ccccc2NC(=O)c2ccccc2[N+](=O)[O-])cc1
133 to 134 °C | Cc1ccc(CC(CC(=O)N2CC3CCCCC3C2)C(=O)O)cc1 (stereo not given)
102 °C | COC(=O)c1sc(C(=O)OC)c(-c2ccoc2)c1O

melting point | SMILES
304 to 306 °C | CC(C)(C)c1cc(N=C(O)c2cc(C(O)=Nc3cc(C(C)(C)C)c(O)c(C(C)(C)C)c3)c(C(=O)O)cc2C(=O)O)cc(C(C)(C)C)c1O
180 to 181 °C | Nc1nc(Nc2ccccc2)nc(-c2cc(Cl)ccc2Cl)n1
115 to 117 °C | O=C(Nc1[nH]nc(-c2c(Cl)cc(C(F)(F)F)c(F)c2Cl)c1[N+](=O)[O-])C(Cl)Cl
80 to 81 °C | Fc1cccc2c1OC1CN(Cc3ccccc3)CC1O2 (stereo not given)
90 to 92 °C | CC(C)(C#N)c1cc(C#N)cc(Cn2cncn2)c1
262 to 264 °C | O=C1NC(=O)c2c1c(-c1ccccc1Cl)cc1c2c2cc(O)ccc2n1CCSc1ccccc1
87 to 88 °C | C=CCON=Cc1nc(-c2ccc(Cl)c(Cl)c2Cl)cn1S(=O)(=O)N(C)C
56 to 60 °C | Clc1nc(-c2cccnc2)sc1NC1CC1
136 to 138 °C | CC(C)n1nc(-c2c(-c3ccccc3)nn3ccc(N4CCN(Cc5ccccc5)CC4)cc23)ccc1=O
150 to 153 °C | CCOC(Cn1cncn1)(c1ccc(F)cc1F)C(F)(F)S(=O)(=O)CCO (stereo not given)
235 to 237 °C | Cc1ccc(S(=O)(=O)Nc2cc(C(=O)O)c3c(c2)C(C(=O)O)CC(c2ccccc2)N3)cc1 (stereo not given)
47 to 49 °C | CCOC(=O)CCc1cc(OCOC)nn1Cc1ccc(Cl)cc1Cl
> 250 °C | Cc1ccc2c(=O)cc[nH]c2c1[N+](=O)[O-]
261 to 264 °C | CC(=O)Nc1ncc(-c2ccncc2)cn1
141 to 142 °C | CC(=O)N1C(=O)C(C(=O)c2cccnc2)c2ccccc21 (stereo not given)
58 °C | C[C@H](NC(=O)OC(C)(C)C)C(=O)OCCCNc1cccc2c1C(=O)c1ccccc1C2=O
241 °C | CC(=O)Nc1nc(C)c(S(=O)(=O)N2CCC(O)C2)s1 (racemic)
235 to 237 °C | O=C(Oc1ccc(C(=O)c2ccc(Cl)cc2)cc1)Oc1ccc(C(=O)c2ccc(Cl)cc2)cc1
123 to 125 °C | COC(=O)c1ccc(CN(C2CCCCC2O)S(=O)(=O)c2ccc(Cl)cc2)c(F)c1F (stereo not given)

melting point | SMILES
164 to 165 °C | Nc1ccc(-c2nnn(-c3ccc(C(F)(F)F)cc3F)c2N)cc1
97 to 99 °C | COC(=O)CC(CSc1ccc2ccccc2c1)C(=O)O (stereo not given)
60 to 61 °C | CCCCc1ccc(NCc2ccc(N(C)C)cc2)cc1
92 °C | ON=CCc1cccs1
171 to 173 °C | Cc1nnc2ccc(-c3cccc(N(C)C(=O)C4CCC4)c3)nn12
101 to 103 °C | CCNC(=O)c1c(C)cccc1N(C)C(C)(C)C
104 to 107 °C | CON=C(C#N)c1ccc(Cl)c(CNC(=O)OC)c1
105 to 107 °C | CCOC(=NC(=O)OC)NC(=O)Nc1cc(C(=O)OC)c(Cl)cc1F
211 to 212 °C | NC(=O)NN=Cc1ccc(OCc2ccccc2F)cc1
117 to 118 °C | COC1=CC(=O)C2=C(C1=O)C1C=CC2C1 (stereo not given)
278 to 280 °C | N#Cc1ccc(-c2csc(Nc3ccccc3O)n2)cc1
134 °C | CC(C)N1CCN(CCN2CCC(c3cn(-c4ccc(F)cc4)c4cc(Cl)ccc34)CC2)C1=O
118 to 120 °C | CCO[PH](=O)CN(C)c1cc(Oc2ccc(C(F)(F)F)cc2Cl)ccc1[N+](=O)[O-] (stereo not given)
63 to 65 °C | CCOC(=O)CCc1cc(Cl)c(Cl)cc1C(=O)CCCNC(C)=O
65 to 69 °C | CC=CCn1c(C)c(CCCCC)c2cnnc(OCc3ccc(F)cc3)c21
141 to 143 °C | COC1=C(OC)C(=Nc2ccccc2)NC1=O
259 to 260 °C | O=c1c2ccccc2ncn1-c1nnn[nH]1
172 to 174 °C | COc1ccc(C(=O)Nc2ccc(F)c(F)c2)cc1NCc1cccs1
304 to 305 °C | Cn1ncc2c1C(=O)Nc1cccnc1N2
